Assay results published in ChEMBL document CHEMBL1201862, “PubChem BioAssay data set” (2004).
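Values below derive from 48-hour exposures of cells grown in 96-well plates, with endpoints linearly interpolated between the two concentrations bracketing the appropriate inhibition level. GI50: concentration for 50% inhibition of growth.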 Calls of active or inactive are those of the source. Rule as the data show it: active = GI50 up to about 1.1 µM and inactive = higher.

What was measured:
Assay in all cases: growth of human tumour cells (NCI), 48 h
[1] = tested on: 786-0
[2] = tested on: BT-549
[3] = tested on: COLO 205
[4] = tested on: EKVX
[5] = tested on: HCC 2998
[6] = tested on: HCT-116
[7] = tested on: HT-29
[8] = tested on: Hs-578T
[9] = tested on: M14
[10] = tested on: MOLT-4
[11] = tested on: Malme-3M
[12] = tested on: NCI-H522
[13] = tested on: OVCAR-3
[14] = tested on: SK-OV-3
[15] = tested on: SN12C
[16] = tested on: SR
[17] = tested on: TK-10
[18] = tested on: U-251
[19] = tested on: SK-MEL-28
[20] = tested on: CAKI-1

Measured: GI50

CCCCc1ccc(Nc2nc(O)c3ncn(COCCO)c3n2)cc1
inactive: [1] 44.1 µM | [2] > 100 µM | [3] > 100 µM | [4] > 100 µM | [5] > 100 µM | [6] > 100 µM | [7] > 100 µM | [8] > 100 µM | [9] > 100 µM | [10] 56 µM | [11] > 100 µM | [12] > 100 µM | [13] > 100 µM | [14] > 100 µM | [15] > 100 µM | [16] 88.3 µM | [17] > 100 µM | [18] 57.4 µM

O=C1C(NCCc2cc(Cl)c(O)c(Cl)c2)=CC(=O)c2[nH]cnc21
inactive: [1] 55.5 µM | [2] 33.7 µM | [3] 21.2 µM | [4] 32.1 µM | [5] 38.8 µM | [6] 27.1 µM | [7] 40.4 µM | [8] 80 µM | [9] 10.7 µM | [10] 24.3 µM | [11] 4.57 µM | [12] 12.8 µM | [13] 17.7 µM | [19] 28 µM | [15] 30 µM | [16] 32.6 µM | [17] 51.8 µM | [18] 39.7 µM

CN(O)C(=O)c1cccc(Cl)c1
inactive: [1] > 100 µM | [2] > 100 µM | [20] > 100 µM | [3] > 100 µM | [4] > 100 µM | [5] > 100 µM | [6] > 100 µM | [7] 70.6 µM | [8] > 100 µM | [9] > 100 µM | [10] 51.2 µM | [12] > 100 µM | [13] > 100 µM | [19] > 100 µM | [14] > 100 µM | [15] > 100 µM | [16] 32.7 µM | [17] > 100 µM | [18] > 100 µM

O=C(O)c1ccccc1/C=N/N=C1NCCN1
inactive: [1] > 100 µM | [2] > 100 µM | [3] > 100 µM | [4] > 100 µM | [5] > 100 µM | [6] > 100 µM | [7] > 100 µM | [8] > 100 µM | [9] > 100 µM | [10] > 100 µM | [11] 88.1 µM | [12] 71.8 µM | [13] > 100 µM | [19] > 100 µM | [14] 61.5 µM | [16] 88.5 µM | [17] 46.8 µM | [18] > 100 µM

O=C1CSC(c2ccc([N+](=O)[O-])cc2)N1c1nc(-c2ccc3c(c2)CCCC3)cs1 (stereo not drawn)
inactive: [1] > 100 µM | [2] 94.6 µM | [20] > 100 µM | [3] > 100 µM | [4] > 100 µM | [5] > 100 µM | [6] > 100 µM | [7] > 100 µM | [8] > 100 µM | [10] > 100 µM | [11] > 100 µM | [12] > 100 µM | [13] > 100 µM | [19] > 100 µM | [15] > 100 µM | [16] > 100 µM | [17] > 100 µM | [18] > 100 µM

O=C(OC1OC2COC(=O)c3cc(O)c(O)c(O)c3-c3c(cc(O)c(O)c3O)C(=O)OC3C2OC(=O)[C@@]24CC(=O)[C@@](O)(OC25C(=O)O[C@H]2[C@@H](O)CO[C@@]25O)C2(O)Oc5c(O)c(O)cc(c5C24)C(=O)OC13)c1cc(O)c(O)c(O)c1 (stereo partly drawn)
inactive: [1] 63.1 µM | [2] > 100 µM | [20] 12.1 µM | [3] 56.4 µM | [4] 34.8 µM | [5] 28 µM | [6] 36.9 µM | [7] 23.2 µM | [8] > 100 µM | [9] 49.3 µM | [10] 40.5 µM | [11] > 100 µM | [12] 19.5 µM | [13] 50 µM | [19] > 100 µM | [14] 83 µM | [15] 56 µM | [16] 30.3 µM | [18] 39.6 µM

CN1CCC/C1=C1/C(=O)N(c2ccccc2)N=C1c1ccc[nH]1
inactive: [1] > 100 µM | [2] > 100 µM | [20] > 100 µM | [3] > 100 µM | [4] > 100 µM | [5] > 100 µM | [6] > 100 µM | [8] > 100 µM | [9] > 100 µM | [10] > 100 µM | [11] > 100 µM | [12] > 100 µM | [13] > 100 µM | [19] > 100 µM | [15] > 100 µM | [16] > 100 µM | [17] > 100 µM | [18] > 100 µM

CCCCCCCC(CC(=O)O)OC(=O)CC(CCCCCCC)OC1OC(C)C(O)C(O)C1OC1OC(C)C(O)C(O)C1O (stereo not drawn)
inactive: [1] > 100 µM | [2] > 100 µM | [20] > 100 µM | [3] > 100 µM | [4] > 100 µM | [5] > 100 µM | [6] > 100 µM | [7] > 100 µM | [8] 67.6 µM | [9] > 100 µM | [10] > 100 µM | [11] 43.2 µM | [12] > 100 µM | [13] > 100 µM | [19] 44.6 µM | [14] > 100 µM | [15] > 100 µM | [16] > 100 µM | [18] > 100 µM

O=c1oc2ccccc2cc1P(=O)(O)O
inactive: [1] > 100 µM | [2] > 100 µM | [20] > 100 µM | [3] > 100 µM | [4] > 100 µM | [5] > 100 µM | [6] > 100 µM | [7] > 100 µM | [8] > 100 µM | [9] > 100 µM | [10] > 100 µM | [11] > 100 µM | [12] > 100 µM | [13] > 100 µM | [19] > 100 µM | [15] > 100 µM | [16] > 100 µM | [17] > 100 µM | [18] > 100 µM

COc1cc2oc(=O)ccc2cc1C(=O)CC(C)C
inactive: [1] > 100 µM | [2] 71.4 µM | [20] 22.9 µM | [3] > 100 µM | [4] 94.8 µM | [5] > 100 µM | [6] > 100 µM | [7] > 100 µM | [8] 38.5 µM | [9] > 100 µM | [10] 57.8 µM | [12] 23.6 µM | [13] > 100 µM | [19] > 100 µM | [14] > 100 µM | [15] > 100 µM | [16] 62.4 µM | [17] > 100 µM | [18] > 100 µM

[N-]=[N+]=Nc1cc(=O)n2c3c(cccc13)CCC2
inactive: [1] > 100 µM | [2] > 100 µM | [3] > 100 µM | [4] 43.7 µM | [5] > 100 µM | [6] > 100 µM | [7] > 100 µM | [8] > 100 µM | [9] > 100 µM | [10] > 100 µM | [11] > 100 µM | [12] > 100 µM | [13] > 100 µM | [19] > 100 µM | [15] > 100 µM | [16] > 100 µM | [17] > 100 µM | [18] > 100 µM
